The results in this text go back to patent US20250215460A1, “MICROBIAL […] THE CONVERSION OF CARBOHYDRATES” (Ohio State Innovation Foundation, priority 2022, published 2025).

This assay deals with C. tyrobutyricum. Briefly: Batch fermentation in stirred-tank bioreactor on glucose and xylose with acetate and benzyl viologen added. Type of assay: cell-based, Clostridium tyrobutyricum. To be noted: in the presence of 3.75 μM BV (0.30 g/g before BV addition); pH 6.0, ~18 g/L acetate added at ~48 h. On the procedure: Batch fermentation in a stirred-tank bioreactor with C. tyrobutyricum grown on glucose and xylose at pH 6.0 was studied with the addition of ˜18 g/L acetate and 3.75 μM benzyl viologen (BV) at ˜48 h. With BV and acetate addition, C. tyrobutyricum converted glucose, xylose, and acetate simultaneously to butyrate as the sole fermentation product with close to 100% purity at an overall yield of ˜0.48 g/g substrate. Almost all glucose and acetate (both produced before BV addition and externally added) were consumed to produce butyrate, reaching a high concentration of ˜46 g/L. Butyric acid yield from sugars increased from 0.30 g/g before BV addition to 0.52 g/g from both sugars and acetate consumed in the presence of 3.75 μM BV. The theoretical yield of butyric acid from glucose in the fermentation is 0.8 mol/mol (0.39 g/g) when acetate (0.4 mol/mol) and carbon dioxide (2 mol/mol) are also produced as co-products. In contrast, butyrate formation from acetate has a theoretical yield of 0.73 g/g (0.5 mol/mol), which is 87.2% higher than that from glucose, because no substrate carbon is lost in carbon dioxide. In addition to the higher butyrate yield, butyrate was produced as the only main product in the fermentation with a high acid purity of 98.3%, which was much higher than ˜80% in typical butyric acid fermentation. […]

Take `c1ccc(C[n+]2ccc(-c3cc[n+](Cc4ccccc4)cc3)cc2)cc1` [BV, benzyl viologen]: the “Butyric acid yield from both sugars and acetate consumed” value stood at 0.52 g/g.
